ChEMBL document CHEMBL4828703, “Structure-activity relationship study of THZ531 derivatives enables the discovery of BSJ-01-175 as a dual CDK12/13 covalent inhibitor with efficacy in Ewing sarcoma” (Eur J Med Chem, 2021)
The source made the active and inactive calls. No cut-off for these calls is given here.

How the values were obtained:
[1] = Antiproliferative activity against human TC71 cells assessed as reduction in cell viability; format: functional, cell-based; settings: TC-71
[2] = target: CDK12/Cyclin K (Homo sapiens, UniProt Q9NYV4); assay: Inhibition of human recombinant CDK12/CyclinK assessed as reduction in substrate phosphorylation using His-c-Myc as substrate preincubated with enzyme for 5 mins followed by substrate addition for 15 mins in presence of [gamma 32P-ATP] by radioactive kinase assay; format: protein-complex assay
[3] = target: Cyclin-dependent kinase 13/Cyclin-K (Homo sapiens, UniProt Q14004); assay: Inhibition of human recombinant CDK13/CyclinK assessed as reduction in substrate phosphorylation using His-c-Myc as substrate preincubated with enzyme for 5 mins followed by substrate addition for 15 mins in presence of [gamma 32P-ATP] by radioactive kinase assay; format: protein-complex assay
[4] = target: Cyclin-dependent kinase 12 (Homo sapiens) (UniProt Q9NYV4); assay: Binding affinity to CDK12 in CDK12/CyclinK complex (unknown origin) assessed as increase in CDK12 mass at 10-fold excess concentration incubated for 1 hr by LC-MS analysis
[5] = target: T1, Cyclin-dependent kinase 12/13 (Homo sapiens) (UniProt Q14004+Q9NYV4); assay: Inhibition of CDK12/13 in human jurkat cells assessed as reduction in RNA polymerase 2 CTD phosphorylation at Ser2 residue at 1 uM measured after 6 hrs by immunoblotting analysis; format: cell-based
[6] = target: T1, Cyclin-dependent kinase 12/13 (Homo sapiens); assay: Inhibition of CDK12/13 in human Jurkat cells assessed as BRCA1 gene expression at 0.5 to 1 uM incubated for 4 hrs by RT-qPCR analysis; format: cell-based; set-up: scale not given: the % may be the effect or the level left; settings: dose 0.5-1 µM
[7] = Antiproliferative activity against human Kelly cells harboring CDK12 C1039F mutant assessed as reduction in cell viability incubated for 72 hrs by CellTiter-Glo assay; format: functional, cell-based
[8] = Cmax in Swiss albino mouse at 10 mg/kg, po measured upto 24 hrs by LC-MS/MS analysis; format: ADME, organism-based; set-up: route oral, dose 10 mg/kg, time <=24; settings: in vivo
[9] = Oral bioavailability in Swiss albino mouse at 10 mg/kg measured upto 24 hrs by LC-MS/MS analysis; format: ADME, organism-based; settings: in vivo
[10] = system: TC-71; assay: Antitumor activity against human TC71 cells xenografted in nude mouse assessed as suppression of tumor growth at 10 mg/kg, ip for 21 days by caliper analysis; format: functional, organism-based; settings: time 21.0 day
[11] = target: Ribosomal protein S6 kinase alpha-3 (Homo sapiens, UniProt P51812); assay: Inhibition of ADP(ATP)-biotin probe binding to RSK2 domain 1 in human Kelly cells at 1 uM incubated for 6 hrs by KiNativ profiling analysis; format: cell-based
[12] = target: Cyclin-dependent kinase 7 (Homo sapiens) (UniProt P50613); assay: Inhibition of ADP(ATP)-biotin probe binding to CDK7 in human Kelly cells at 1 uM incubated for 6 hrs by KiNativ profiling analysis; format: cell-based
[13] = target: Mitogen-activated protein kinase 8 (Homo sapiens) (UniProt P45983); assay: Inhibition of ADP(ATP)-biotin probe binding to JNK1 in human Kelly cells at 1 uM incubated for 6 hrs by KiNativ profiling analysis; format: cell-based
[14] = target: Mitogen-activated protein kinase 10 (Homo sapiens) (UniProt P53779); assay: Inhibition of ADP(ATP)-biotin probe binding to JNK3 in human Kelly cells at 1 uM incubated for 6 hrs by KiNativ profiling analysis; format: cell-based
[15] = target: Serine/threonine-protein kinase 16 (Homo sapiens) (UniProt O75716); assay: Inhibition of ADP(ATP)-biotin probe binding to MPSK1 in human Kelly cells at 1 uM incubated for 6 hrs by KiNativ profiling analysis; format: cell-based
[16] = target: Serine/threonine-protein kinase 10 (Homo sapiens) (UniProt O94804); assay: Inhibition of ADP(ATP)-biotin probe binding to LOK in human Kelly cells at 1 uM incubated for 6 hrs by KiNativ profiling analysis; format: cell-based
[17] = target: Cyclin-dependent kinase 7 (Homo sapiens) (UniProt P50613); assay: Inhibition of THZ1-biotin binding from CDK7 in human Jurkat cells at 500 nM incubated for 6 hrs by CyclinH antibody based competitive pull down assay; format: cell-based
[18] = target: Cyclin-dependent kinase 7 (Homo sapiens) (UniProt P50613); assay: Inhibition of THZ1-biotin binding from CDK7 in human Jurkat cells at 5 uM incubated for 6 hrs by CyclinH antibody based competitive pull down assay; format: cell-based
[19] = Downregulation of RNA polymerase 2 CTD phosphorylation at Ser5 residue in human Jurkat cells at 0.5 uM incubated for 6 hrs by immunoblotting analysis; format: functional
[20] = Downregulation of RNA polymerase 2 CTD phosphorylation at Ser7 residue in human Jurkat cells at 0.5 uM incubated for 6 hrs by immunoblotting analysis; format: functional
[21] = Downregulation of RNA polymerase 2 CTD phosphorylation at Ser7 residue in human Jurkat cells at 5 uM incubated for 6 hrs by immunoblotting analysis; format: functional
[22] = Downregulation of RNA polymerase 2 in human Jurkat cells at 2.5 uM measured after 6 hrs by immunoblotting analysis; format: functional
[23] = Antiproliferative activity against human Kelly cells harboring wild type CDK12 assessed as reduction in cell viability incubated for 72 hrs by CelTiter-Glo assay; format: functional, cell-based
[24] = target: DNA-dependent protein kinase catalytic subunit (Homo sapiens, UniProt P78527); assay: Inhibition of human DNAPK by Invitrogen ADAPTA or Z'LYTE biochemical kinase assay

Chain of Cyclin-dependent kinase 7 (Homo sapiens) (P50613 whole entry): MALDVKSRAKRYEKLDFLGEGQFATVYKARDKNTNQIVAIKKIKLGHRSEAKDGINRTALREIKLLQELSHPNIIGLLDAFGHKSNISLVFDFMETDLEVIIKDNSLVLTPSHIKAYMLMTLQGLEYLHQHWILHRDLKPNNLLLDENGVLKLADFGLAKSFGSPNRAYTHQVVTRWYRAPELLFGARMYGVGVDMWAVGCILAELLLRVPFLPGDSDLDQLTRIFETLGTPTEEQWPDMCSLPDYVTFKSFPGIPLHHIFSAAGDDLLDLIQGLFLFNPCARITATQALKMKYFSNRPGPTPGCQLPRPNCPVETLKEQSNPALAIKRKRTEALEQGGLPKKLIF
Chain of Serine/threonine-protein kinase 10 (Homo sapiens) (O94804 whole entry, looked up): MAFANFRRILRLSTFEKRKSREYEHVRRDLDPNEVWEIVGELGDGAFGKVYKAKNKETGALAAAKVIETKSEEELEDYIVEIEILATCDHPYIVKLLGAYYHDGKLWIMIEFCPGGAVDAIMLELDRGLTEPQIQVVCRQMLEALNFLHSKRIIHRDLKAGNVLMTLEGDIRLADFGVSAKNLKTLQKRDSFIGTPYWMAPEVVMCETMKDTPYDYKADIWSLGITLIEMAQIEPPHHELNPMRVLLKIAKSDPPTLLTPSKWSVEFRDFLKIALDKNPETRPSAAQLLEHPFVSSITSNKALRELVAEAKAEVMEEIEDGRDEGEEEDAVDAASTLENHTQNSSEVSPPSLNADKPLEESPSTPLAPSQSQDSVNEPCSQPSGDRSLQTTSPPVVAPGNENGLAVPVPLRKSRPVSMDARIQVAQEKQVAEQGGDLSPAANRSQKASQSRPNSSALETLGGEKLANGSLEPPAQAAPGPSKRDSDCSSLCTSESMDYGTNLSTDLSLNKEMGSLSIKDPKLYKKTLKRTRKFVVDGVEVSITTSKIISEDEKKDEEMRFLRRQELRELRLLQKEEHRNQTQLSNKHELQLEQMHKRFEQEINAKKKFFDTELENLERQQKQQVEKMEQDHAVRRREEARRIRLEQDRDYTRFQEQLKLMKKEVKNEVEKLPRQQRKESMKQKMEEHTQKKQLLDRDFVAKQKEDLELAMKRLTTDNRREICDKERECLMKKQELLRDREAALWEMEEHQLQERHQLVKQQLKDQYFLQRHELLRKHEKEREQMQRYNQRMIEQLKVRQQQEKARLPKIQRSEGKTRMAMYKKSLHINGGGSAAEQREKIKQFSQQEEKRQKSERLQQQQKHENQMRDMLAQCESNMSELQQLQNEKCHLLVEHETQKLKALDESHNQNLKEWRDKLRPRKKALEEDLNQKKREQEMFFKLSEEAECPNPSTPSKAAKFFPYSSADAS
Chain of Ribosomal protein S6 kinase alpha-3 (P51812 whole entry, the tested form may be a part): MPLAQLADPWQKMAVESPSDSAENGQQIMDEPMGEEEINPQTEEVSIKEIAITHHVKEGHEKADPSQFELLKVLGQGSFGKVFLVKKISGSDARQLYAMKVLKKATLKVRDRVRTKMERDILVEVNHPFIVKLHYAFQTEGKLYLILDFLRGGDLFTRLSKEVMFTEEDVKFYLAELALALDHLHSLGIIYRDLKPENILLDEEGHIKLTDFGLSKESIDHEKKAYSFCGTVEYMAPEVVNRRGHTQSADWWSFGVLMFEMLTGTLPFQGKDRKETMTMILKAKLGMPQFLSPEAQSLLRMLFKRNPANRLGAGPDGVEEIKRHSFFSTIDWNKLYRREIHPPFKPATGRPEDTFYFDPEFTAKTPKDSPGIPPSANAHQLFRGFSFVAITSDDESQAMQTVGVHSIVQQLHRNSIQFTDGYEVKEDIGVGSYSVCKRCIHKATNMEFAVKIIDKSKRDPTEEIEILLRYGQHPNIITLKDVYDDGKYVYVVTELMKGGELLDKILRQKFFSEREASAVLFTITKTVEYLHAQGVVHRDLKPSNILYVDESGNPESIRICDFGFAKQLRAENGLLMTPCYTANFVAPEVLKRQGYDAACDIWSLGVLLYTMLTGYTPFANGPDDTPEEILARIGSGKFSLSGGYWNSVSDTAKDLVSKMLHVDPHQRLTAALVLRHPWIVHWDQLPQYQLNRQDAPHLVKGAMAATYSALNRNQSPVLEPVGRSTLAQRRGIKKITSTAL
Chain of Mitogen-activated protein kinase 8 (Homo sapiens) (P45983 whole entry): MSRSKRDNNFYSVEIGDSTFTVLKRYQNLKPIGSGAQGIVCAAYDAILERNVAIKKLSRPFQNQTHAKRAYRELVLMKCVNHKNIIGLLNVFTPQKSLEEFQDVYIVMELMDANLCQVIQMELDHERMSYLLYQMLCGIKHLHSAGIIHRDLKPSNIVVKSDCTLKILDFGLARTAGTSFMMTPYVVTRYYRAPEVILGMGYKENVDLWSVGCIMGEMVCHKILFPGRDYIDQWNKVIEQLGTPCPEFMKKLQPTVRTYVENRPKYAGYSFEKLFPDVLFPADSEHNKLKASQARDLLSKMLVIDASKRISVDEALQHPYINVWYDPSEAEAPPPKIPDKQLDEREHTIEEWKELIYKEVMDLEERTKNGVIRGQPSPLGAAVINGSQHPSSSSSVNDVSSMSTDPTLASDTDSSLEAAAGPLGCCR
Chain of Serine/threonine-protein kinase 16 (Homo sapiens) (O75716 whole entry): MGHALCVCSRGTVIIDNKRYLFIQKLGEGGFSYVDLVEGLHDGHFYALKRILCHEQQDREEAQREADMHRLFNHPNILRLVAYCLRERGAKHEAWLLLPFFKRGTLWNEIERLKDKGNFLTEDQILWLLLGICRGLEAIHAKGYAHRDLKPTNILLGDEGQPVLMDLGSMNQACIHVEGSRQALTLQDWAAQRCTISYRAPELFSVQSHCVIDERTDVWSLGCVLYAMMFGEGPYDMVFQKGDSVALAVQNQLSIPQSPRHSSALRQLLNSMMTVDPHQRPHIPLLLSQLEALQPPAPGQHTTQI
Chain of Cyclin-dependent kinase 13/Cyclin-K (Q14004 whole entry): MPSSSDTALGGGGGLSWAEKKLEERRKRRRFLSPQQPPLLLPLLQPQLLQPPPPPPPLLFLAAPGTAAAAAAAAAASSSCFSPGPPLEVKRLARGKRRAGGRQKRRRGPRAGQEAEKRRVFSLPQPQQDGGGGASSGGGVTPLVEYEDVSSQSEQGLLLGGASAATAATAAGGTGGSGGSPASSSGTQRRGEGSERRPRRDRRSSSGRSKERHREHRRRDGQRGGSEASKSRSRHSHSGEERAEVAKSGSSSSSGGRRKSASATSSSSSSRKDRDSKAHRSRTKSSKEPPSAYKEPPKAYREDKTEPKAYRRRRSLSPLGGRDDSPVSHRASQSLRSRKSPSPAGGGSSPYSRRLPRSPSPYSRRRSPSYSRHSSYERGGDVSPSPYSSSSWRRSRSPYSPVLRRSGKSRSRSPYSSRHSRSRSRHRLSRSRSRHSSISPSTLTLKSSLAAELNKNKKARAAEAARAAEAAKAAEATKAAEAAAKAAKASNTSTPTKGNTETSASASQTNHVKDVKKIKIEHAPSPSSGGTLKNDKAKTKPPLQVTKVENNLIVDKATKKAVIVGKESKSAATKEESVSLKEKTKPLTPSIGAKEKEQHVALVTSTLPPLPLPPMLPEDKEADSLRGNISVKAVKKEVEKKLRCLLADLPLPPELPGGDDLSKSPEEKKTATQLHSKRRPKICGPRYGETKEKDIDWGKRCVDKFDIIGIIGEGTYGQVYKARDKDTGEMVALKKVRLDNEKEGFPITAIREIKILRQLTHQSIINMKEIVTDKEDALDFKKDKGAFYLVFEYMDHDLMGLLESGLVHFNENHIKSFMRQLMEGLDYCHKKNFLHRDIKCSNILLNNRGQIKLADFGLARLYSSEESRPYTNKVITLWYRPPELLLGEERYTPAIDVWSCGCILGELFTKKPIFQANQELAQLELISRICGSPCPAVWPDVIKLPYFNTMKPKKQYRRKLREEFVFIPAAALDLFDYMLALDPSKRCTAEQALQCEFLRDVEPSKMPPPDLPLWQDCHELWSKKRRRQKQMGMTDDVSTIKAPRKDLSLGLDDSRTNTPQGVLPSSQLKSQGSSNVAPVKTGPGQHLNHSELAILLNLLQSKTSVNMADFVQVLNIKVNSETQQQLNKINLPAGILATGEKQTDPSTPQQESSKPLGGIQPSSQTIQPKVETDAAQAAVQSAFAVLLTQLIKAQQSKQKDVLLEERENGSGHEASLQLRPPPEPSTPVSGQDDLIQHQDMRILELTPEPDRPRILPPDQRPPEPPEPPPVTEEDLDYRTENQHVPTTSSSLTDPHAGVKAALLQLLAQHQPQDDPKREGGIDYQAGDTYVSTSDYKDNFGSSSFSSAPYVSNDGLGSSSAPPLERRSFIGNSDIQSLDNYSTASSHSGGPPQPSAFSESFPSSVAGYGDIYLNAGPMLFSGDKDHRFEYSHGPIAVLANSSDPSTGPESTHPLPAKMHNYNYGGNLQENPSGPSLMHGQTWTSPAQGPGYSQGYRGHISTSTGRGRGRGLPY
Chain of Cyclin-dependent kinase 13/Cyclin-K (O75909 whole entry, further chain): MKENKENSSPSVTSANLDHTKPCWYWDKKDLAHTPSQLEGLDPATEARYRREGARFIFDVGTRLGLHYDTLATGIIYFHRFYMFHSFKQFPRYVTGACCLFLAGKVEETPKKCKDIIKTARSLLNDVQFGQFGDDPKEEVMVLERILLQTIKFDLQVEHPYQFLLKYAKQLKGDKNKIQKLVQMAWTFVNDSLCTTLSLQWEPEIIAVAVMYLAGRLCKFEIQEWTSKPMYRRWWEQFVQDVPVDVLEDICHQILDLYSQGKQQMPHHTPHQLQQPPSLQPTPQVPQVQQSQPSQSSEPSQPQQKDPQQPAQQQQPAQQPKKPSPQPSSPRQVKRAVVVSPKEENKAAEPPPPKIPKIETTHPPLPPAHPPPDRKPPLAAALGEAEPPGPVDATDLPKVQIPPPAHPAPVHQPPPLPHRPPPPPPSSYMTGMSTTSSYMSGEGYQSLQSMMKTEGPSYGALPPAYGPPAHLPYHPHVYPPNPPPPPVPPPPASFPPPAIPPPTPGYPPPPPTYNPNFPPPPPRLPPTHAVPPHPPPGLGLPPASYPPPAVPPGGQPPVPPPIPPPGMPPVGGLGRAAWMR

IC50 [2]: 156 nM | IC50 [3]: 283 nM | Activity [4]: Active | inhibition [5]: 78% | Activity [6]: 30% | Cmax [8]: 272 ng/mL | F [9]: 17% | inhibition [11]: 46% | inhibition [12]: 39.2% | inhibition [13]: 45.9% | inhibition [14]: 45.9% | inhibition [15]: 42.4% | inhibition [16]: 33.9% | inhibition [17]: inactive | inhibition [18]: Active | IC50 [24]: > 10000 nM
SMILES: CN(C)C/C=C/C(=O)Nc1ccc(O[C@@H]2CCC[C@@H](Nc3ncc(Cl)c(-c4c[nH]c5ccccc45)n3)C2)cc1
IC50 [1]: 160 nM | IC50 [7]: 225 nM | Activity [10]: Active | inhibition at 0.5 µM [19]: 0% | inhibition at 0.5 µM [20]: 0% | inhibition at 5 µM [21]: 74% | inhibition at 2.5 µM [22]: 15% | IC50 [23]: 42.2 nM
